Key:
[1] = test system: MRC5; assay: Growth inhibition of human MRC5 cells after 7 days by MTT assay; format: cell-based; settings: MRC5, 168 h
[2] = test system: HeLa; assay: Growth inhibition of human HeLa cells after 72 hrs by MTT assay; format: cell-based
[3] = biological target: Sarcoplasmic/endoplasmic reticulum calcium ATPase 1 (Homo sapiens, UniProt O14983); assay: Inhibition of SERCA1a (unknown origin) ATPase activity
[4] = test system: Plasmodium falciparum; assay: Antimalarial activity against chloroquine-sensitive Plasmodium falciparum FCR3 infected in human type A+ erythrocytes assessed as growth inhibition after 72 hrs by LDH assay; format: functional, organism-based; settings: FCR3, 72 h
[5] = test system: Plasmodium falciparum; assay: Antimalarial activity against chloroquine-resistant Plasmodium falciparum K1 infected in human type A+ erythrocytes assessed as growth inhibition after 72 hrs by LDH assay; format: functional, organism-based; settings: K1, 72 h
[6] = test system: Plasmodium falciparum; assay: Antimalarial activity against Plasmodium falciparum FcB1; format: functional, organism-based; settings: FcB1/Columbia
[7] = test system: Plasmodium falciparum; assay: Antimalarial activity against Plasmodium falciparum 3D7; format: functional, organism-based

Sequence of Sarcoplasmic/endoplasmic reticulum calcium ATPase 1 (O14983 whole entry): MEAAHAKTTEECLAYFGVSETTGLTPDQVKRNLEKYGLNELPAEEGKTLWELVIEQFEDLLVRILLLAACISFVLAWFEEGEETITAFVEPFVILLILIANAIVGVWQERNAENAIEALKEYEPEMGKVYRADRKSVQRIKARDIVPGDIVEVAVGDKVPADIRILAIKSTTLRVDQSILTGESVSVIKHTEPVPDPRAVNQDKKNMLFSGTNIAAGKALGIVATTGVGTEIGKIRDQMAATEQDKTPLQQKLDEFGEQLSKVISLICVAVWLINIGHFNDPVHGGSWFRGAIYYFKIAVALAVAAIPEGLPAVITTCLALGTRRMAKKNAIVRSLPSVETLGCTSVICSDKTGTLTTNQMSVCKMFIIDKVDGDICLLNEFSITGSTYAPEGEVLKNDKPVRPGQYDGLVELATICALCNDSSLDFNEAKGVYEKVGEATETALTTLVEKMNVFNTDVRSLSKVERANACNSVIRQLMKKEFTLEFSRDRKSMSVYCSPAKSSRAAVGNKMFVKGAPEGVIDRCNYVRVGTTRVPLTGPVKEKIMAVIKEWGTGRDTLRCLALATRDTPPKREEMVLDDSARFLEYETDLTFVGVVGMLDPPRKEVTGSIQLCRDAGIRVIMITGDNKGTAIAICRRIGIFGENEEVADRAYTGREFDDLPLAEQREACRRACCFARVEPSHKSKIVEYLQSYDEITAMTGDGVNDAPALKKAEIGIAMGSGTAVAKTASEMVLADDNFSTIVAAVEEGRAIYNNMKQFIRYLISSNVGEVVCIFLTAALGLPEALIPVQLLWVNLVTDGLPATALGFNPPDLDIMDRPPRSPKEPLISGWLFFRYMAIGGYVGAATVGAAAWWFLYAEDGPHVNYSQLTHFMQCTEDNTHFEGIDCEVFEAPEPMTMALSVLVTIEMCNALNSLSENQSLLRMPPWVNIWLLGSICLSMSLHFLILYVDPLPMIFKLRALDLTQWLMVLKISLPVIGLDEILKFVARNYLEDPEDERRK

| Compound | IC50 [1] | IC50 [2] | Ki [3] | IC50 [4] | IC50 [5] | IC50 [6] | IC50 [7] |
| --- | --- | --- | --- | --- | --- | --- | --- |
| C/C=C/C/C(C)=C\[C@H]1C/C=C/C=C/C[C@H](C)/C=C(\C)[C@@H](OC)C/C=C/[C@@H](O[C@@H]2O[C@H](CO)[C@@H](O)[C@H](OC)[C@H]2O)CC(=O)O1 | 0.4 µM | 2.5 µM | 0.019 µM | 4.4 µM | 3.4 µM | – | – |
| C/C=C(/C)C(=O)O[C@H]1C(C)=C2[C@H]([C@@H]1OC(=O)CCCCCCC)[C@@](C)(OC(C)=O)C[C@H](OC(=O)CCC)[C@@]1(O)[C@H]2OC(=O)[C@@]1(C)O [THAPSIGARGIN] | – | – | 0.0001 µM | – | – | – | – |
| CO[C@H]1C/C=C/[C@@H](O)CC(=O)O[C@@H](/C=C(/C)CO)C/C=C/C=C/C[C@H](C)/C=C/1C | 19 µM | > 30 µM | – | 24 µM | > 31 µM | – | – |
| C/C=C/C/C(C)=C\[C@H]1C/C=C/C=C/C[C@H](C)/C=C(\C)[C@@H](OC)C/C=C/[C@@H](O)CC(=O)O1 | 0.23 µM | 0.0028 µM | 0.017 µM | 23.5 µM | 24 µM | – | – |
| CCNC(=O)/C(C)=C\[C@H]1C/C=C/C=C/C[C@H](C)/C=C(\C)[C@@H](OC)C/C=C/[C@@H](O)CC(=O)O1 | 2.9 µM | 9.2 µM | – | 17 µM | 16 µM | – | – |
| CC(=O)C1=C(O)[C@@H]2[C@H]3c4c[nH]c5cccc(c45)C[C@H]3C(C)(C)N2C1=O [CYCLOPIAZONIC ACID] | – | – | 1.8 µM | – | – | 4.9 µM | 8.8 µM |
| CO[C@H]1C/C=C/[C@@H](O)CC(=O)O[C@@H](/C=C(/C)CNC(C)=O)C/C=C/C=C/C[C@H](C)/C=C/1C | 3 µM | 4.9 µM | – | 14 µM | 19 µM | – | – |

Reference: ChEMBL document CHEMBL4184117, “Design, synthesis and anti-malarial activities of synthetic analogs of biselyngbyolide B, a Ca2+ pump inhibitor from marine cyanobacteria” (Bioorg Med Chem Lett, 2018)
